Test results as given in ChEMBL document CHEMBL3046600, “1-Phenoxyalkyl-4-[(N,N-disubstitutedamino)alkyl]piperazine derivatives as non-imidazole histamine H3-antagonists” (Med Chem Res, 2013).

Biological target: T1, Histamine H3 receptor (Cavia porcellus, UniProt Q9JI35)
Assay: Antagonist activity at histamine H3 receptor in Cavia porcellus (guinea pig) ileum assessed as inhibition of electrically-induced contraction
Type: tissue-based
Conditions: read-out: pA2 (converted)

T1 sequence (Q9JI35 whole entry): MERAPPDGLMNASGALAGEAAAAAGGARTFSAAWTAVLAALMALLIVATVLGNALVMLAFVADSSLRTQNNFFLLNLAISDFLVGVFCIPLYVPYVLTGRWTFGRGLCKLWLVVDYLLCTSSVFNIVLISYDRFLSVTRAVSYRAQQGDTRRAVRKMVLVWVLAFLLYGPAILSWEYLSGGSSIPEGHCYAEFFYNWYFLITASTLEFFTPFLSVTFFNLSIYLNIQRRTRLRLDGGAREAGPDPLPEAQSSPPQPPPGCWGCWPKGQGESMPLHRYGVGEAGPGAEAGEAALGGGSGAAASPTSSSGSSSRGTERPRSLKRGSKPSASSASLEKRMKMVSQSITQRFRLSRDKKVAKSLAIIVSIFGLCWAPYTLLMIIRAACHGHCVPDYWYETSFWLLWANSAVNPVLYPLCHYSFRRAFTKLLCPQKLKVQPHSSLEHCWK

Kb | SMILES
0.105 µM | CN(CCCCN1CCN(CCCCCCCOc2ccccc2)CC1)C(=O)c1ccccc1
0.1 µM | CN(CCCCN1CCN(CCCCCCCOc2ccccc2)CC1)C(=O)C(F)(F)F
0.0692 µM | CC(=O)N(C)CCCCN1CCN(CCCCCCCOc2ccccc2)CC1

Biological target: Histamine H1 receptor (Cavia porcellus, UniProt P31389)
Assay: Antagonist activity at histamine H1 receptor in Cavia porcellus (guinea pig) ileum assessed as inhibition of histamine-induced contraction
Conditions: read-out: pA2 (converted)

Sequence of Histamine H1 receptor (P31389 whole entry): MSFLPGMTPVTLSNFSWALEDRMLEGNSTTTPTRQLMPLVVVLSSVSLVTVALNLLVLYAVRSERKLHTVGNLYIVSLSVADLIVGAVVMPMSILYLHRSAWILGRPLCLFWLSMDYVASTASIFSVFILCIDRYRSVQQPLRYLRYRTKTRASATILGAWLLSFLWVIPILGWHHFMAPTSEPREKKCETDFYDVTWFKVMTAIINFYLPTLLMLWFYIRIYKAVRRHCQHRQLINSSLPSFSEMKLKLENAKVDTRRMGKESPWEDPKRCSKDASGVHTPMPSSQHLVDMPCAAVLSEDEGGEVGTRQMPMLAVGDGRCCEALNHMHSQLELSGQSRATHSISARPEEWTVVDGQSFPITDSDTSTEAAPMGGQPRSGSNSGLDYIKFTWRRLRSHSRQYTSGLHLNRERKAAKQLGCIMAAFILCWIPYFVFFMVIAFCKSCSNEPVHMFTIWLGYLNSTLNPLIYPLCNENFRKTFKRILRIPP

Kb | SMILES
> 100 µM | NCCCCN1CCN(CCCCCCCOc2ccccc2)CC1

Biological target: T1, Histamine H3 receptor
Assay: Antagonist activity at histamine H3 receptor in Cavia porcellus (guinea pig) jejunum assessed as inhibition of electrically-induced contraction
Conditions: read-out: pA2 (converted)

Kb | SMILES
0.214 µM | NCCCCCCCN1CCN(CCCCCCCOc2ccccc2)CC1
0.102 µM | NCCCCCN1CCN(CCCCCCCOc2ccccc2)CC1
0.38 µM | NCCN1CCN(CCCCCCCOc2ccccc2)CC1
0.145 µM | NCCCN1CCN(CCCCCCCCOc2ccccc2)CC1
0.0912 µM | NCCCN1CCN(CCCCCCCOc2ccccc2)CC1
0.191 µM | NCCCN1CCN(CCCCCCOc2ccccc2)CC1
0.158 µM | NCCCN1CCN(CCCCCOc2ccccc2)CC1
0.513 µM | NCCCN1CCN(CCCOc2ccccc2)CC1

More lines, now with the values behind:

SMILES | Kb
NCCCCCCN1CCN(CCCCCCCOc2ccccc2)CC1 | 0.214 µM
NCCCCN1CCN(CCCCCCCOc2ccccc2)CC1 | 0.0661 µM
NCCCN1CCN(CCCCCCCCCOc2ccccc2)CC1 | 0.102 µM
NCCCN1CCN(CCCCOc2ccccc2)CC1 | 0.24 µM
NCCCN1CCN(CCOc2ccccc2)CC1 | 0.178 µM
S=C(NC1CCCCC1)N1CCC(c2cnc[nH]2)CC1 [THIOPERAMIDE] | 0.00219 µM
